Data as given in ChEMBL document CHEMBL4476867, “Hydroxy formamide derivatives and their use” (2016).

Legend:
[1] = target: T1, Bone morphogenetic protein 1 (Homo sapiens, UniProt P13497); assay: Inhibition of C-terminal FLAG-6x-His epitope tagged and N-terminal human RAGE signal sequence tagged human BMP1 (23 to 721 amino acids) expressed in CHO-E1 cells pre-incubated for 10 mins before promyostatin peptide substrate addition and measured after 30 mins using 50 nM BMP1 by FRET based assay; assay type: cell-based
T1 sequence (P13497 whole entry): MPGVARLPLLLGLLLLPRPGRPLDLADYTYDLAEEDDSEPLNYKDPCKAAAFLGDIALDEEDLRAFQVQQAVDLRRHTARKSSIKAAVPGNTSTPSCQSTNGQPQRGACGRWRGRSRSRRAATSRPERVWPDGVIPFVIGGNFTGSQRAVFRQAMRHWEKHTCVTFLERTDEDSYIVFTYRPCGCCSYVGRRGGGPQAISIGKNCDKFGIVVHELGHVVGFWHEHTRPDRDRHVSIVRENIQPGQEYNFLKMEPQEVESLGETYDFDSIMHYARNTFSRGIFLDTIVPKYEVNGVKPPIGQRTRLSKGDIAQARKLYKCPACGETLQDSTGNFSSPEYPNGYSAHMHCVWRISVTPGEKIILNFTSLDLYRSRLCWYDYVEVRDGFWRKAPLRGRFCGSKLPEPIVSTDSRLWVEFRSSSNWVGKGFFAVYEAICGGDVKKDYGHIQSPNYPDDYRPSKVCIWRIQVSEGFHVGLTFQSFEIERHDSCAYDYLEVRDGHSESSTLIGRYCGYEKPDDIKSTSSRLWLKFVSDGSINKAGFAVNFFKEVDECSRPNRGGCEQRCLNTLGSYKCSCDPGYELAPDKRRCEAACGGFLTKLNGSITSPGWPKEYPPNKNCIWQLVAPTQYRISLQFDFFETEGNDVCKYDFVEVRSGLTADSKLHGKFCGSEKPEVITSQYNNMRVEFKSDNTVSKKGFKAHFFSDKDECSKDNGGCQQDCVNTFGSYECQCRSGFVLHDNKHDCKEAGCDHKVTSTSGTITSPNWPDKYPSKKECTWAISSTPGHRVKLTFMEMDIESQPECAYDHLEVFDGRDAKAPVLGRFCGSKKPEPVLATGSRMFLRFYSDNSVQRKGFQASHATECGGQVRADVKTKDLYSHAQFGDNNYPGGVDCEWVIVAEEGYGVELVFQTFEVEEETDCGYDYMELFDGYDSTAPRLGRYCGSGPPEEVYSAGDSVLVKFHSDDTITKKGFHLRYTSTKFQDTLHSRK

[2] = target: T1, Bone morphogenetic protein 1; assay: Inhibition of C-terminal FLAG-6x-His epitope tagged and N-terminal human RAGE signal sequence tagged human BMP1 (23 to 721 amino acids) expressed in CHO-E1 cells pre-incubated for 10 mins before promyostatin peptide substrate addition and measured after 60 mins using 0.5 nM BMP1 by FRET based assay; assay type: cell-based
[3] = Reduction in PICP levels in human cardiac fibroblasts incubated for 24 to 48 hrs by ELISA; assay type: functional
Summary of the method: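 Procollagen I C-terminal propeptide in the culture medium was quantified using a Quidel ELISA. The cells were human cardiac fibroblasts of passage 6 or below, seeded at 10,000 to 15,000 cells per well in 96-well plates and treated the next day in ficoll crowding EMEM with 100 μM ascorbic acid and under 0.3% DMSO. Treatment lasted 24 to 48 hr at 37° C. For IC50, levels normalized to untreated controls were fitted to a log(inhibitor)-response equation in GraphPad Prism.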

[4] = Reduction in mature collagen deposition levels in human cardiac fibroblasts incubated for 24 to 48 hrs by immunostaining based assay; assay type: functional
Summary of the method: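 Treatment of human cardiac fibroblasts took place in 96-well plates using ficoll crowding EMEM with 100 μM ascorbic acid and under 0.3% DMSO, at 37° C for 24 to 48 hr. Cells were then fixed for 10 min in −20° C methanol and stained for mature collagen I and nuclei. Collagen intensity per field was normalised to nuclei count, and GraphPad Prism was used to fit the IC50.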

Tolloid-like protein 1 = Tolloid-like protein 1 (Homo sapiens, UniProt O43897, I156V/N221S/V284A); assay: Inhibition of recombinant human TLL1 I156V/N221S/V284A mutant expressed in CHOE1A cells pre-incubated for 10 mins before promyostatin peptide substrate addition and measured after 60 mins by FRET based assay; assay type: cell-based
Tolloid-like protein 2 = target: T2, Tolloid-like protein 2 (Homo sapiens, UniProt Q9Y6L7); assay: Inhibition of C-terminal Avi-6x-His epitope tagged and N-terminal human RAGE signal sequence tagged recombinant human TLL2 (26 to 1015 amino acids) expressed in CHOE1A cells incubated for 60 mins with promyostatin peptide substrate by FRET based assay; assay type: cell-based
T2 sequence (Q9Y6L7 whole entry): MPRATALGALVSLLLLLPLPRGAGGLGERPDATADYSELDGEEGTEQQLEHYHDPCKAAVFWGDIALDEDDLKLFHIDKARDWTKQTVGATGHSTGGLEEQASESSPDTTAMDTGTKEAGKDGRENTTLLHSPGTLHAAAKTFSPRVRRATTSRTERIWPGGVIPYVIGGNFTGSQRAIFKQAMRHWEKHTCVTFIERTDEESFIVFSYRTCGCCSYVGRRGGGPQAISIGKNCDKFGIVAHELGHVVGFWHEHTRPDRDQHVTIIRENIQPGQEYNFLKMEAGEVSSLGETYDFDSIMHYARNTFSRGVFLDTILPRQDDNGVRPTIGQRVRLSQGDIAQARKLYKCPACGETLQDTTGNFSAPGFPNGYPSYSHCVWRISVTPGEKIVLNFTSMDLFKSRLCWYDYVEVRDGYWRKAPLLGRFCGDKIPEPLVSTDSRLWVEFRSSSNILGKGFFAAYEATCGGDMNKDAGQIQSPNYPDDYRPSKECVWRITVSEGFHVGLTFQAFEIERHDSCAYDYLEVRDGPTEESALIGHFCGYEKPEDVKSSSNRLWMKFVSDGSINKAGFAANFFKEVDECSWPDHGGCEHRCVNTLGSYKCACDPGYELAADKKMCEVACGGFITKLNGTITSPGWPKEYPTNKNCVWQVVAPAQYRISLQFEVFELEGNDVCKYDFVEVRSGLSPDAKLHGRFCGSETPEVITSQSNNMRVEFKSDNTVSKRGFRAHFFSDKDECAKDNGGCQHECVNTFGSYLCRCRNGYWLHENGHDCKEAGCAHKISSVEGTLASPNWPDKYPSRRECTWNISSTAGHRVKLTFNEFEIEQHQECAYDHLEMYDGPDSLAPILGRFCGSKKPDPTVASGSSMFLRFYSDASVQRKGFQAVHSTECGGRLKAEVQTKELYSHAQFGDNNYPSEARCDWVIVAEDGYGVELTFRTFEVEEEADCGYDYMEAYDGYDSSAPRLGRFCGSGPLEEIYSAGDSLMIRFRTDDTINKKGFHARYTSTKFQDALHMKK

Tolloid-like protein 1, sequence (O43897 148-1013 I156V/N221S/V284A limits assumed): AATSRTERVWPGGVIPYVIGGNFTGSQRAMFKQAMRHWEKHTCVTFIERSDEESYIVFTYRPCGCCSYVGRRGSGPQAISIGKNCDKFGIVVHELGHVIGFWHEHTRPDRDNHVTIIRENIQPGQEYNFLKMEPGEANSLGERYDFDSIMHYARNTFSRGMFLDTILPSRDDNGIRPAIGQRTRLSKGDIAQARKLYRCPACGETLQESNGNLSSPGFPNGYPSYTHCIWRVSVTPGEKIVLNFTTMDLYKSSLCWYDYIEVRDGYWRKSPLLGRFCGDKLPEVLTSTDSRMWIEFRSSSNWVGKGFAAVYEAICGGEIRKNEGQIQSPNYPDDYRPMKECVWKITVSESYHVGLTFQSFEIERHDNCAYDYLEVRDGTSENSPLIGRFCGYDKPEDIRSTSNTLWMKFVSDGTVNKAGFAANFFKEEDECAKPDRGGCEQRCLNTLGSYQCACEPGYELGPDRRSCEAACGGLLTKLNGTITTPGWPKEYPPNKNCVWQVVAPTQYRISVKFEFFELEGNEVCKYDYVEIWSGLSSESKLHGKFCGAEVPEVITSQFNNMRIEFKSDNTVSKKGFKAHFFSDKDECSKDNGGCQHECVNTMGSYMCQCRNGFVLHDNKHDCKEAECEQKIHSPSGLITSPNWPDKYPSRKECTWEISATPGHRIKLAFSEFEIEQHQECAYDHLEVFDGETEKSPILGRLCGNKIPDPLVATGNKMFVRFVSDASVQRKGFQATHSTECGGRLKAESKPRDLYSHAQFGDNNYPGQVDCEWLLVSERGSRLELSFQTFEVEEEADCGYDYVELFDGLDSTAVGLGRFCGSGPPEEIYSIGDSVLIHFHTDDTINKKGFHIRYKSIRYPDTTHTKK

Row | Compound | IC50 [1] [nM] | IC50 [2] [nM] | IC50 [3] [nM] | IC50 [4] [nM] | IC50 (Tolloid-like protein 1) [nM] | IC50 (Tolloid-like protein 2) [nM]
1 | CCCCC[C@H](CN(O)C=O)C(=O)NCNC(=O)c1ccc(-c2ccccc2)o1 | < 200 | < 126 | < 3980 | < 1000 | < 398 | < 794
2 | CCCCC[C@@H](C(=O)NCNC(=O)c1ccc(-c2cc(OCC)cc(C(=O)O)c2)o1)[C@@H](CC)N(O)C=O | < 200 | < 126 | < 3980 | < 1000 | < 398 | < 794
3 | CCCCC[C@@H](C(=O)NCNC(=O)c1ccc(-c2ccccc2)o1)[C@@H](CC)N(O)C=O | < 200 | < 126 | < 3980 | < 1000 | < 398 | < 794
4 | CCCCC[C@@H](C(=O)NCNC(=O)c1ccc(-c2ccc(C(=O)N[C@@H](CC(=O)O)C(=O)O)c(OCC)c2)o1)[C@@H](CC)N(O)C=O | < 200 | < 126 | < 3980 | < 1000 | < 398 | < 794
5 | CCCCC[C@@H](C(=O)NCNC(=O)c1ccc(-c2cc(OCC)cc(C(=O)N[C@@H](CC(=O)O)C(=O)O)c2)o1)[C@@H](CC)N(O)C=O | < 200 | < 126 | < 3980 | < 1000 | < 398 | < 794
6 | CCCCC[C@@H](C(=O)NCNC(=O)c1ccc(-c2ccc(C(=O)N[C@H](CC(=O)O)C(=O)O)cc2)o1)[C@@H](CC)N(O)C=O | < 200 | < 126 | < 3980 |  | < 398 | < 794
7 | CCCCC[C@@H](C(=O)NCNC(=O)c1ccc(-c2cc(OCC(N)=O)cc(C(=O)O)c2)o1)[C@@H](CC)N(O)C=O | < 200 | < 126 | < 3980 |  | < 398 | < 794
8 | CCCCC[C@@H](C(=O)NCNC(=O)c1ccc(-c2ccc(C(=O)O)c(O)c2)o1)[C@@H](CC)N(O)C=O | < 200 | < 126 | < 3980 |  | < 398 | < 794
9 | CCCCC[C@@H](C(=O)NCNC(=O)c1ccc(-c2ccc(C(=O)N[C@@H](CCC(=O)O)C(=O)O)cc2)o1)[C@@H](CC)N(O)C=O | < 200 | < 126 | < 3980 |  | < 398 | < 794
10 | CCCCC[C@@H](C(=O)NCNC(=O)c1ccc(-c2ccc(CC(=O)N[C@@H](CC(=O)O)C(=O)O)c(OCC)c2)o1)[C@@H](CC)N(O)C=O | < 200 | < 126 | < 3980 | < 1000 | < 398 | < 794
11 | CCCCC[C@@H](C(=O)NCNC(=O)c1ccc(-c2cc(O)cc(P(=O)(O)O)c2)o1)[C@@H](CC)N(O)C=O | < 200 | < 126 | < 3980 |  | < 398 | < 794
12 | CCCCC[C@@H](C(=O)NCNC(=O)c1ccc(-c2cc(OCC)cc(C(=O)N[C@@H](CC(=O)O)C(=O)OC(C)(C)C)c2)o1)[C@@H](CC)N(O)C=O | < 200 | < 126 | < 3980 | < 1000 | < 398 | < 794
13 | CCCCC[C@@H](C(=O)NCNC(=O)c1ccc(-c2ccc(C(=O)NCP(=O)(O)O)c(O)c2)o1)[C@@H](CC)N(O)C=O | < 200 | < 126 | < 3980 |  | < 398 | < 794
14 | CCCCC[C@@H](C(=O)NCNC(=O)c1ccc(-c2ccc(C(=O)N[C@@H](CCC(=O)O)C(=O)O)c(OCC)c2)o1)[C@@H](CC)N(O)C=O | < 200 | < 126 | < 3980 |  | < 398 | < 794
15 | CCCCC[C@@H](C(=O)NCNC(=O)c1ccc(-c2cc(CN(C)CC(=O)O)cc(OCC)c2)o1)[C@@H](CC)N(O)C=O | < 200 | < 126 | < 3980 |  | < 398 | < 794
16 | CCCCC[C@@H](C(=O)NCNC(=O)c1ccc(-c2ccc(C(=O)NCP(=O)(O)O)cc2)o1)[C@@H](CC)N(O)C=O | < 200 | < 126 | < 3980 |  | < 398 | < 794
17 | CCCCC[C@@H](C(=O)NCNC(=O)c1ccc(-c2cc(OCC(=O)O)cc(P(=O)(O)O)c2)o1)[C@@H](CC)N(O)C=O | < 200 | < 126 | < 3980 |  | < 398 | < 794
18 | CCCCC[C@@H](C(=O)NCNC(=O)c1ccc(-c2cc(CNCP(=O)(O)O)cc(OCC)c2)o1)[C@@H](CC)N(O)C=O | < 200 | < 126 | < 3980 |  | < 398 | < 794
19 | CCOc1cc(-c2ccc(C(=O)NCNC(=O)[C@H](CCc3ccccc3)[C@@H](CC)N(O)C=O)o2)cc(P(=O)(O)O)c1 | < 200 | < 126 | < 3980 |  | < 398 | < 794
20 | CCCCC[C@@H](C(=O)NCNC(=O)c1ccc(-c2cccc(C3(C(=O)O)CC3)c2)o1)[C@@H](CC)N(O)C=O | < 200 | < 126 | < 3980 | < 1000 | < 398 | < 794
21 | CCCCC[C@@H](C(=O)NCNC(=O)c1ccc(-c2ccc(C(=O)N(CC(=O)O)CC(=O)O)cc2)o1)[C@@H](CC)N(O)C=O | < 200 | < 126 | < 3980 |  | < 398 | < 794
22 | CCCCC[C@@H](C(=O)NCNC(=O)c1ccc(-c2ccc(C(=O)NCP(=O)(O)O)c(C)c2)o1)[C@@H](CC)N(O)C=O | < 200 | < 126 | < 3980 |  | < 398 | < 794
